Test results: patent US20180280465A1 (EVER Neuro Pharma GmbH, priority 2015, published 2018)
Like-named read-outs stand apart in the source and are kept apart here.

Tests used:
[1] = cited from earlier work
[2] = in NaCl solution; cited from earlier work
[3] = system: NIH/3T3 murine fibroblasts; experiment: Resazurin-fibroblast-assay for assessment of cytotoxicity
Method: The vitality of the fibroblasts was detected with the Resazurin Reagent (Resazurin sodium salt powder (Sigma Aldrich R7017-1G)). Vital and metabolically active cells reduce the non-fluorescent dye resazurin to the fluorescent dye resorufin by using NADH. The amount of fluorescence is proportional to the amount of vital cells. The fluorescence intensity at 535 nm (excitation)/595 nm (emission) is detected with a plate reader.
Cells were cultured in a culture medium (DMEM high glucose) containing 10% FBS, 2 mM L-glutamine and 100 μg/ml penicilline/streptomycin under standard cell culture conditions (37° C., 5% CO2).
The cells were then incubated with the respective solutions in the incubator for 4 h, 18 h, or 24 h (depending on the assay protocol). For every time point a separate 96-well plate was prepared. • Day 1 or 2: Readout—Determination of the fluorescence intensity (resazurin readout): For the determination of the fluorescence intensity (resazurin readout) the medium (100 μl/well) was removed and 100 μl/well resazurin was added (final concentration 0.5 mM; 2.2 ml resazurin stock solution prepared in PBS with a final concentration of 2.5 mM was diluted in 8.8 ml proliferation medium). In the wells serving for the blank control (no cells) 100 μl/well resazurin (0.5 mM) was added. The 96-well plate was then incubated for 1 h in the incubator. The fluorescence intensity was then detected at 535 nm (excitation)/595 nm (emission) with a plate reader.

CN1CCc2cccc3c2[C@H]1Cc1ccc(O)c(O)c1-3 [apomorphine, (6aR)-6-methyl-5,6,6a,7-tetrahydro-4H-dibenzo[de,g]quinoline-10,11-diol]
duration of effect (mean) ([1]; single dose): 40 min | incidence of nodule formation ([1]; subcutaneous apomorphine infusion therapy, meta analysis): 70% | patients terminating therapy because of irritations at the injection site ([1]; subcutaneous infusion, within one year): 70% | solubility [2]: < 10000 µg/mL

N[C@@H](CCC(=O)N[C@@H](CS)C(=O)NCC(=O)O)C(=O)O [Glutathione, (2S)-2-amino-4-{[(1R)-1-[(carboxymethyl)carbamoyl]-2-sulfanylethyl]carbamoyl}butanoic acid]
effect on the toxic effect of oxoapomorphine ([3]; NIH/3T3 cells, oxoapomorphine present): could abolish the toxic effect of oxoapomorphine

O=C1O[C@H]([C@@H](O)CO)C(O)=C1O [Ascorbate, (5R)-[(1S)-1,2-dihydroxyethyl]-3,4-dihydroxyfuran-2(5H)-one]
effect on the toxic effect of oxoapomorphine [3]: had no beneficial effect if the oxidative degradation product oxo-apomorphine was already present in the formulation

CC(O)CO (stereo not drawn) [α-propylene glycol, propane-1,2-diol]
influence of isotonization agent on the cytotoxic effects in the cell culture system ([3]; NIH/3T3 fibroblasts): did not have any influence (negative or positive) on the cytotoxic effects
